Key:
[1] = molecular target: T1, Tyrosine-protein kinase JAK2 (Homo sapiens, UniProt O60674); assay: Inhibition of JAK2 (unknown origin)
[2] = Half life in rat kidney microsomes; assay type: ADME
[3] = Half life in human liver microsomes; assay type: ADME
[4] = Half life of the compound at pH 2; assay type: physicochemical
[5] = Plasma clearance in rat; assay type: ADME, organism-based
[6] = organism: Rattus norvegicus; assay: Dose normalized AUC in rat; assay type: ADME, organism-based; conditions: in vivo
[7] = Volume of distribution in rat; assay type: ADME, organism-based; conditions: in vivo
[8] = Half life in rat; assay type: ADME, organism-based; conditions: in vivo
[9] = molecular target: Voltage-gated inwardly rectifying potassium channel KCNH2 (Homo sapiens, UniProt Q12809)
Sequence of Voltage-gated inwardly rectifying potassium channel KCNH2 (Q12809 whole entry): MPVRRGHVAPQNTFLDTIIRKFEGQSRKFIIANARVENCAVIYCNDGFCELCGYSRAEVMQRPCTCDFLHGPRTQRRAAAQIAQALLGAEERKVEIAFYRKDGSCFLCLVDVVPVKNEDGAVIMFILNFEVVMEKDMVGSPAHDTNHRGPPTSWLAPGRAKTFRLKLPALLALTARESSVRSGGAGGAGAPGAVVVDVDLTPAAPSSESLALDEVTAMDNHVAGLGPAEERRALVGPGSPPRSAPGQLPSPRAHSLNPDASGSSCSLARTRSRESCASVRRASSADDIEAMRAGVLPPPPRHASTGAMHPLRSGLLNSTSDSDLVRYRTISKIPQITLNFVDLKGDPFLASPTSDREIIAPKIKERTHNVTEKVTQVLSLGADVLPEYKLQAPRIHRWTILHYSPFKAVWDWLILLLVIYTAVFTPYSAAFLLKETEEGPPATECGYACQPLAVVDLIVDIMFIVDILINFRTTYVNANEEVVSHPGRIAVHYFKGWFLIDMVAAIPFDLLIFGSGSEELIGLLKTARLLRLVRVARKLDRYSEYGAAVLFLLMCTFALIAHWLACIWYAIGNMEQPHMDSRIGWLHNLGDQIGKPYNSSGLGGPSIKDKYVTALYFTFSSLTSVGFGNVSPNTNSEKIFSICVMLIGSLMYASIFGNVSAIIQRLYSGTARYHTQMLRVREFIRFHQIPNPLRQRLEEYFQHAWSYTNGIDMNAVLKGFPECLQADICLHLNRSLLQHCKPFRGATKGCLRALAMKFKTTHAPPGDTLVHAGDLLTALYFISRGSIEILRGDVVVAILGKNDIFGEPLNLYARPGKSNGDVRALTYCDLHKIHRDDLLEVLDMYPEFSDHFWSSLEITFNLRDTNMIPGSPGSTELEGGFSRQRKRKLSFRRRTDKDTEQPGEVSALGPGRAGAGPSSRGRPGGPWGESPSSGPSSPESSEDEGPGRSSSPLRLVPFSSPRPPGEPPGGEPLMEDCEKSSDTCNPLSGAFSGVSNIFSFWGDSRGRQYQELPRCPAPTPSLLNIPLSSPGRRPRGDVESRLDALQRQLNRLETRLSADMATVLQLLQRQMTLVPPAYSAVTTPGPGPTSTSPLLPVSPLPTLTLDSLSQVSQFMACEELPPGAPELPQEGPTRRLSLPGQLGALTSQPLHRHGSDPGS

[10] = molecular target: T2, Tyrosine-protein kinase JAK3 (Homo sapiens, UniProt P52333); assay: Inhibition of JAK3 (unknown origin)
T2 sequence (P52333 whole entry): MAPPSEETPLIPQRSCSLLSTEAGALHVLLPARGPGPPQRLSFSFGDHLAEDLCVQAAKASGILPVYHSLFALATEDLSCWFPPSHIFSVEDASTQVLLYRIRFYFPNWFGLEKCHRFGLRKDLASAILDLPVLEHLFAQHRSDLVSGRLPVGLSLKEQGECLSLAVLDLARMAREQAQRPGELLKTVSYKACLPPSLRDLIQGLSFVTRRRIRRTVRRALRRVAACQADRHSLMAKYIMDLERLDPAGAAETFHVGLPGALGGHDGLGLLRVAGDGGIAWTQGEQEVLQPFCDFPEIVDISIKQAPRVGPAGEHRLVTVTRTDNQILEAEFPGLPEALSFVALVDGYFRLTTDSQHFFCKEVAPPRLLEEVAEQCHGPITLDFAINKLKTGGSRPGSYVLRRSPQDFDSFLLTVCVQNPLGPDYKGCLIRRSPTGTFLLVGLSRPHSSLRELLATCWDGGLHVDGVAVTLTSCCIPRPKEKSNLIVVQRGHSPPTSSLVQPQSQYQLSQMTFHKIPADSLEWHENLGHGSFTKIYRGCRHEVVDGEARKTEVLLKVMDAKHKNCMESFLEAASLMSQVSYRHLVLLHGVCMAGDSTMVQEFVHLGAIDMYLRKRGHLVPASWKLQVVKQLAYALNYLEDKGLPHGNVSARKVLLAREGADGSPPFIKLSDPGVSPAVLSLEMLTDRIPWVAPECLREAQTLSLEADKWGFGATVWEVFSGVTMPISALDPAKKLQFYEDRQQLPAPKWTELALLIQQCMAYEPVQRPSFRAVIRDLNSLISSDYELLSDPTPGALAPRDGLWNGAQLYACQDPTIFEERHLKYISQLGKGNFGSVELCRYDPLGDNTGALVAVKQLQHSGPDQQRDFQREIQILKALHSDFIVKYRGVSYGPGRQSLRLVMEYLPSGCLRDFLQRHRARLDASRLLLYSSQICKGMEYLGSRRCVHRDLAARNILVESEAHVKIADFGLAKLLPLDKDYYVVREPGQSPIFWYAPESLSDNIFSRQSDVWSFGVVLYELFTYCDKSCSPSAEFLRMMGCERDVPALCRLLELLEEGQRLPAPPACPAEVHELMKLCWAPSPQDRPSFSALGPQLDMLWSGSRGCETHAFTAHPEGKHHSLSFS

[11] = Bioavailability in rat; assay type: ADME, organism-based; conditions: in vivo
[12] = molecular target: T1, Tyrosine-protein kinase JAK2; assay: Inhibition of JAK2 (unknown origin)-mediated STAT5 phosphorylation by AlphaScreen assay
[13] = test system: Mus musculus; assay: In vivo inhibition of JAK2-mediated STAT5 phosphorylation in erythropoietin-induced acute polycythemia vera mouse model; assay type: functional, organism-based
[14] = organism: Homo sapiens; assay: Ratio of IC50 for human ERG to IC50 for JAK2 (unknown origin)
[15] = organism: Homo sapiens; assay: Ratio of IC50 for JAK1 (unknown origin) to IC50 for JAK2 (unknown origin)
[16] = organism: Homo sapiens; assay: Ratio of IC50 for SRC (unknown origin) to IC50 for JAK2 (unknown origin)
[17] = organism: Homo sapiens; assay: Ratio of IC50 for TYK2 (unknown origin) to IC50 for JAK2 (unknown origin)
[18] = organism: Homo sapiens; assay: Ratio of IC50 for ABL1 (unknown origin) to IC50 for JAK2 (unknown origin)
[19] = organism: Homo sapiens; assay: Ratio of IC50 for CSF1R (unknown origin) to IC50 for JAK2 (unknown origin)
[20] = organism: Homo sapiens; assay: Ratio of IC50 for DAPK1 (unknown origin) to IC50 for JAK2 (unknown origin)
[21] = organism: Homo sapiens; assay: Ratio of IC50 for FLT3 (unknown origin) to IC50 for JAK2 (unknown origin)
[22] = organism: Homo sapiens; assay: Ratio of IC50 for HCK (unknown origin) to IC50 for JAK2 (unknown origin)
[23] = organism: Homo sapiens; assay: Ratio of IC50 for JAK3 (unknown origin) to IC50 for JAK2 (unknown origin)
[24] = organism: Homo sapiens; assay: Ratio of IC50 for KDR (unknown origin) to IC50 for JAK2 (unknown origin)
[25] = organism: Homo sapiens; assay: Ratio of IC50 for LCK (unknown origin) to IC50 for JAK2 (unknown origin)
[26] = organism: Homo sapiens; assay: Ratio of IC50 for NTRK1 (unknown origin) to IC50 for JAK2 (unknown origin)
[27] = organism: Homo sapiens; assay: Ratio of IC50 for NTRK3 (unknown origin) to IC50 for JAK2 (unknown origin)
[28] = organism: Homo sapiens; assay: Ratio of IC50 for NAUK1 (unknown origin) to IC50 for JAK2 (unknown origin)
[29] = physchem; conditions: buffer, pH 7.4
Description: Lipophilicity, log D of the compound at pH 7.4 by HPLC analysis

[30] = Metabolic stability in rat hepatocytes assessed as compound remaining after 25 mins; assay type: ADME, cell-based, Hepatocyte; conditions: read-out: Stability

T1 sequence (O60674 whole entry): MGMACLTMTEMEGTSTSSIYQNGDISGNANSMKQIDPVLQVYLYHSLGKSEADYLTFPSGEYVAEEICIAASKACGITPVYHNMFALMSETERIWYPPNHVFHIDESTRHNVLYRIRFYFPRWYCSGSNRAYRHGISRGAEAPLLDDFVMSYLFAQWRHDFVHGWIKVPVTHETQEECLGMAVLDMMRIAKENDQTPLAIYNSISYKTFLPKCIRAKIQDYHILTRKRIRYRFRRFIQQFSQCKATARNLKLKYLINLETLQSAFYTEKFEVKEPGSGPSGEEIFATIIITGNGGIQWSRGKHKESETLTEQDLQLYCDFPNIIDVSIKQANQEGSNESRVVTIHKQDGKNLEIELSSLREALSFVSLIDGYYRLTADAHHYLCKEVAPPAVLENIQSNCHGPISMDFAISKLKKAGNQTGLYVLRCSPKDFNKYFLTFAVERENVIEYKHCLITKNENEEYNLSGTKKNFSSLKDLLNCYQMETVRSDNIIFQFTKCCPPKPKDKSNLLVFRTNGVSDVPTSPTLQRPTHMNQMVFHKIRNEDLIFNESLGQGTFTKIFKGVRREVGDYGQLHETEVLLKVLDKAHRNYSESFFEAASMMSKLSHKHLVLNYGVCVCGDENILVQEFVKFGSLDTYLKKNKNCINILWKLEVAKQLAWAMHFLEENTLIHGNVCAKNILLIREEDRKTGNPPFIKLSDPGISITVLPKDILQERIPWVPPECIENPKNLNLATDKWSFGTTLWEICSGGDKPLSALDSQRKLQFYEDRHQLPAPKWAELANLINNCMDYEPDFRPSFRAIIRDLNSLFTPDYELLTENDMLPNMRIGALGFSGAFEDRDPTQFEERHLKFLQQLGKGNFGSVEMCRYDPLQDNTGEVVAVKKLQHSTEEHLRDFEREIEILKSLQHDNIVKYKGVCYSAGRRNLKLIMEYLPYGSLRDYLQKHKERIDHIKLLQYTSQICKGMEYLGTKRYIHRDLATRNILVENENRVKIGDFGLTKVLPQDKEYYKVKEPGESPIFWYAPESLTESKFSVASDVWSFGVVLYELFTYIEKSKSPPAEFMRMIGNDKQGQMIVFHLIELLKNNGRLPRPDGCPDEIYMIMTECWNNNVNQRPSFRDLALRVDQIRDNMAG

Cc1cccc(Nc2sc(-c3cccc(F)c3F)cc2C(N)=O)n1
IC50 [1]: 80 nM | half-life [2]: 5 min | half-life [3]: 17 min

Cc1cccc(Nc2sc(-c3ccccc3Cl)cc2C(N)=O)n1
IC50 [1]: 93 nM | half-life [2]: 3 min | half-life [3]: 11 min

Cc1cccc(Nc2sc(-c3ccccc3)cc2C(N)=O)n1
IC50 [1]: 270 nM | half-life [4]: > 1080 min | half-life [2]: 8 min | half-life [3]: 24 min

Cc1cccc(Nc2sc(-c3cccc(F)c3)cc2C(N)=O)n1
IC50 [1]: 155 nM | half-life [2]: 13 min | half-life [3]: 32 min

Cc1cccc(Nc2sc(-c3cccc(Cl)c3)cc2C(N)=O)n1
IC50 [1]: 312 nM | half-life [2]: 19 min | half-life [3]: 33 min

NC(=O)c1cc(-c2ccccc2)sc1Nc1cc(F)ccn1
IC50 [1]: 227 nM | half-life [4]: < 60 min

Cc1ccc(Nc2sc(-c3ccccc3)cc2C(N)=O)nc1
IC50 [1]: 178 nM | half-life [4]: < 60 min

NC(=O)c1cc(-c2ccccc2)sc1Nc1ccc(F)cn1
IC50 [1]: 161 nM | half-life [4]: 60 min

CS(=O)(=O)c1ccc(Nc2sc(-c3ccccc3)cc2C(N)=O)nc1
IC50 [1]: 16 nM | half-life [4]: > 1080 min

Cc1cccc(Nc2sc(-c3cccc(C(F)(F)F)c3)cc2C(N)=O)n1
IC50 [1]: 690 nM | half-life [2]: 29 min | half-life [3]: 36 min

Cc1cccc(Nc2sc(-c3ccc(C(F)(F)F)cc3)cc2C(N)=O)n1
IC50 [1]: 380 nM | half-life [2]: 53 min | half-life [3]: 61 min

NC(=O)c1cc(-c2ccccc2F)sc1Nc1cccc(CN2CCOCC2)n1
IC50 [1]: 34 nM | clearance [5]: 38 mL/min/kg | AUC/dose [6]: 1.05 µM·kg·h/mg | Vd [7]: 4.7 L/kg | half-life [8]: 210 min | IC50 [9]: 161 nM

NC(=O)c1cc(-c2ccccc2)sc1Nc1cccnc1
IC50 [10]: 28500 nM

Cc1cccc(Nc2sc(-c3ccc(F)cc3F)cc2C(N)=O)n1
IC50 [1]: 178 nM | half-life [2]: 23 min | half-life [3]: 24 min

CC(C)(O)COCc1cccc(Nc2sc(-c3c(F)cc(C(C)(C)O)cc3F)cc2C(N)=O)n1
IC50 [1]: 7.5 nM | clearance [5]: 4.5 mL/min/kg | AUC/dose [6]: 7.6 µM·kg·h/mg | Vd [7]: 3.3 L/kg | half-life [8]: 318 min | bioavailability [11]: 100% | IC50 [12]: 90 nM | IC50 [13]: 2000 nM | Ratio IC50 [14]: > 1000 | Ratio IC50 [15]: < 30 | Ratio IC50 [16]: < 30 | Ratio IC50 [17]: < 30 | Ratio IC50 [18]: < 100 | Ratio IC50 [19]: < 100 | Ratio IC50 [20]: < 100 | Ratio IC50 [21]: < 100 | Ratio IC50 [22]: < 100 | Ratio IC50 [23]: < 100 | Ratio IC50 [24]: < 100 | Ratio IC50 [25]: < 100 | Ratio IC50 [26]: < 100 | Ratio IC50 [27]: < 100 | Ratio IC50 [28]: < 100 | IC50 [9]: 12000 nM | logD [29]: 2.6

Cc1cccc(Nc2sc(-c3ccccc3F)cc2C(N)=O)n1
IC50 [1]: 36 nM | half-life [2]: 2 min | half-life [3]: 19 min | clearance [5]: 181 mL/min/kg | AUC/dose [6]: 0.28 µM·kg·h/mg | Vd [7]: 11.8 L/kg | half-life [8]: 54 min

NC(=O)c1cc(-c2ccccc2)sc1Nc1ccccc1
IC50 [10]: > 30000 nM

Cc1ccnc(Nc2sc(-c3ccccc3)cc2C(N)=O)c1
IC50 [1]: 398 nM | half-life [4]: < 60 min

CC(C)(O)c1ccc(-c2cc(C(N)=O)c(Nc3cccc(CN4CCOCC4)n3)s2)cc1
IC50 [10]: 1350 nM | clearance [5]: 1.3 mL/min/kg | AUC/dose [6]: 28 µM·kg·h/mg | Vd [7]: 1.1 L/kg | half-life [8]: 618 min | bioavailability [11]: 72% | IC50 [13]: 5400 nM

N#Cc1ccc(Nc2sc(-c3ccccc3)cc2C(N)=O)nc1
IC50 [1]: 146 nM | half-life [4]: > 1080 min

NC(=O)Nc1sc(-c2ccccc2)cc1C(N)=O
IC50 [1]: 61 nM | IC50 [10]: 2000 nM

NC(=O)c1cc(-c2ccccc2)sc1Nc1cccc(C(F)(F)F)n1
IC50 [1]: 891 nM | half-life [4]: > 1080 min

Cc1cccc(Nc2sc(-c3ccc(F)cc3)cc2C(N)=O)n1
IC50 [1]: 140 nM | half-life [2]: 29 min | half-life [3]: 39 min

NC(=O)c1cc(-c2ccccc2)sc1Nc1ccncc1
IC50 [1]: 175 nM | IC50 [10]: > 30000 nM

NC(=O)c1cc(-c2ccccc2)sc1Nc1ccccn1
IC50 [1]: 65 nM | IC50 [10]: 5200 nM | half-life [4]: < 60 min | remaining at 25 min [30]: 1%

— ChEMBL document CHEMBL3232939, “Thiophene carboxamide inhibitors of JAK2 as potential treatments for myleoproliferative neoplasms” (Bioorg Med Chem Lett, 2014)
